Laboratory results from article PMC6916368, “Cell‐Based Optimization of Covalent Reversible Ketoamide Inhibitors Bridging the Unprimed to the Primed Site of the Proteasome β5 Subunit” (Chemmedchem, 2019).

How the values were obtained:
[1] = in vitro; assay type: cell-based; conditions: human
Method: Remarkably, in THP‐1 cells the initial cytotoxicity is increasing for 3 compared to 27 until 14 h treatment (9‐fold) but is approaching to the end of the assay.
Time‐dependent determination of cell viability. For the determination of time‐dependent cytotoxic activity 5.000 cells per well were plated in a white 384 well‐plate in RPMI‐1640 medium supplemented with 0.1 % FBS. Real‐Time Glo MT cell viability assay (Promega) and inhibitor were added to the final concentration and luminescence was determined using a Tecan M1000 microplate reader at the time points indicated (SI chapter 2b, Figure S9–S17, Table S2).

[2] = target: T1, β2c subunit of isolated human 20S proteasome (Homo sapiens, UniProt Q99436); assay: Proteasome inhibition assay (20 S Proteasome Assay Kit, Bz‐VGR‐AMC); assay type: biochemical; conditions: c = 1 µM, n=1; read-out: Inhibition cCP β2
T1 construct: purchased Enzo Life Sciences
In short: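 Isolated 20S proteasome (200 ng/well) was preincubated 30 min with inhibitor, then Bz-VGR-AMC (100 μM final) was added for 60 min and fluorescence read. Single-point residual activity was taken at 100 nM or 1 μM; IC50 was fitted from duplicates, mean of three independent experiments.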

For `Cc1cc(C)c(Oc2ccccc2)cc1NC(=O)C(=O)[C@H](CC(C)C)NC(=O)[C@H](CC(C)C)NC(=O)[C@H](CC(C)C)NC(=O)c1cc(Cl)ccc1Cl` [Compound 27, 2,5‐Dichloro‐N‐((S)‐1‐(((S)‐1‐(((S)‐1‐((2,4‐dimethyl‐5‐phenoxyphenyl)amino)‐5‐methyl‐1,2‐dioxo‐hexan‐3‐yl)amino)‐4‐methyl‐1‐oxopentan‐2‐yl)amino)‐4‐methyl‐1‐oxopentan‐2‐yl)benzamide], the IC50 at 13 h [1] was 0.3 to 0.6 µM and the inhibition at 1 µM [2] was 6%.
